The values below come from patent US6949566B2, “Thiazole and oxazole derivatives” (Shionogi & Co. Ltd., priority 2000, dated 2005).

Holding throughout (type): biochemical
The target of one test is T1, MMP-2 (Homo sapiens, UniProt P08253).
T1 construct: purchased Calbiochem-Novabiochem International, Inc
T1 sequence (P08253 110-660): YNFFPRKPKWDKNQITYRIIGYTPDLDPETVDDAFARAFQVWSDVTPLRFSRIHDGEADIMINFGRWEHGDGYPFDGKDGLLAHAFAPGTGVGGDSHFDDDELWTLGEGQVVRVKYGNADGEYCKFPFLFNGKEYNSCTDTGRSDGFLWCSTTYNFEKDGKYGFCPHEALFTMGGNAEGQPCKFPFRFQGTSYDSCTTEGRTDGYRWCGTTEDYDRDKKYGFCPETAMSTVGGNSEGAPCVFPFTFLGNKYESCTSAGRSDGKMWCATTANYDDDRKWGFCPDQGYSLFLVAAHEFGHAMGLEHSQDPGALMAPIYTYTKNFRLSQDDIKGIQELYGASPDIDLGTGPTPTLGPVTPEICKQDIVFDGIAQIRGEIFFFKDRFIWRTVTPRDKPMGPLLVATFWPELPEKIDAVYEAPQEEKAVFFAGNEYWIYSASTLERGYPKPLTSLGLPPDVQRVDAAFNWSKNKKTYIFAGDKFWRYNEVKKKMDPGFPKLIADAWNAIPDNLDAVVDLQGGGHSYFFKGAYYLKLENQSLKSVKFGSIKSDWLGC
Put plainly: Assay for inhibitory activities on MMPs (fluorogenic peptide substrate), MMP-2. Particulars: purchased MMP-2; substrate MOCAc-Pro-Leu-Gly-Leu-A2Pr(DNP)-Ala-Arg-NH2. On the procedure: MMP-2 was purchased from Calbiochem-Novabiochem International, Inc.
(§1) The enzymatic activity on MMPs was analyzed by the method described in “C. Graham Knight, Frances Willenbrock and Gillian Murphy: A novel coumarin-labelled peptide for sensitive continuous assays of the matrix metalloproteinases: FEBS LETT., 296, (1992), 263-266”. The substrate MOCAc-Pro-Leu-Gly-Leu-A2Pr(DNP)-Ala-Arg-NH2 was purchased from Peptide Institute, Inc., Osaka, Japan. The measurement of the inhibitory activities (IC50) was carried out by the following four methods;
(§2) (A) Reaction with substrate, enzyme (MMPs) and inhibitor
(§3) (B) Reaction with substrate and inhibitor, without enzyme
(§4) (C) Reaction with substrate and enzyme (MMPs), without inhibitor
(§5) (D) Reaction with substrate only
(§6) IC50 values were calculated by using the following formula and each fluorescence values of above four methods (A to D). % inhibition={1−(A−B)/(C−D)}×100 IC50 means the concentration required to inhibit 50% of the enzyme activity.

For the next test, the target named is T2, MMP-8 (Homo sapiens, UniProt P22894).
T2 construct: catalytic domain (^99Phe˜^262Gly) was amplified with PCR; His-tag; enterokinase digestion-site; made in house; host or cells: Escherichia coli
T2 sequence (P22894 99-262): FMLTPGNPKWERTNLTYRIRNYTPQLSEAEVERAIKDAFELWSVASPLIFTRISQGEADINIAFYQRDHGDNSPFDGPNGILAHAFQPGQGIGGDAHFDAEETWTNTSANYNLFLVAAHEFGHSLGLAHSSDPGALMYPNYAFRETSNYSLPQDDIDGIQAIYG
Description: Assay for inhibitory activities on MMPs (fluorogenic peptide substrate), MMP-8. The note with it: catalytic domain 99Phe-262Gly; substrate MOCAc-Pro-Leu-Gly-Leu-A2Pr(DNP)-Ala-Arg-NH2.
Excerpt: In regard to MMP-8, catalytic domain (^99Phe˜^262Gly) was amplified with PCR using commercial available Human Bone Marrow cDNA. This was cloned in Escherichia. coli expression vector pTrc99AHE inserted with His-tag sequence and enterokinase digestion-site, induced and expressed by IPTG (Isopropyl-β-D-thiogalactopyranoside) and expressed in a insoluble fraction (Thau F. Ho, M. Walid Qoronfleh, Robert C. Wahl, Trica A. Pulvino, Karen J. Vavra, Joe Falvo, Tracey M. Banks, Patricia G. Brake and Richard B. Ciccarelli: Gene expression, purification and characterization of recombinant human neutrophil collagenase. Gene 146, (1994) 297-301, Prepared by the a improved method of this material). Isolation of MMP-8 from an insoluble fraction was carried out by dissolving in modifier (6M urea) by a usual method and purification with metal chelate chromatography. And then removing modifier (6M urea) with dialysis and refolding of the enzyme spontaneously gave activated MMP-8.
as §1, §2, §3, §4, §5, §6

The target in a further test is T3, MMP-13 (Homo sapiens, UniProt P45452).
T3 construct: catalytic domain (^104Tyr˜^267Gly) was amplified with RT-PCR; His-tag; enterokinase digestion-site; made in house; host or cells: Escherichia coli
Put plainly: Assay for inhibitory activities on MMPs (fluorogenic peptide substrate), MMP-13. The note with it: catalytic domain 104Tyr-267Gly; substrate MOCAc-Pro-Leu-Gly-Leu-A2Pr(DNP)-Ala-Arg-NH2. The method, then: (§7) In regard to MMP-13, mRNA was prepared from carcinoma cell SW1353 derived from human cartilage stimulate by IL-1, TNF and catalytic domain (^104Tyr˜^267Gly) was amplified with RT-PCR. This was cloned in Escherichia. coli expression vector pTrc99AHE inserted with His-tag sequence and enterokinase digestion-site, induced and expressed by IPTG (Isopropyl-β-D-thiogalactopyranoside) and expressed in a insoluble fraction. Isolation of MMP-13 from an insoluble fraction was carried out by dissolving in modifier (6M urea) by a usual method and purification with metal chelate chromatography (Ni Chelateing Sepharose). And then removing modifier (6M urea) with dialyze and refolding of the enzyme spontaneously gave activated MMP-13.
as §1, §2, §3, §4, §5, §6

A further test concerns the target T4, MMP-9 (Homo sapiens, UniProt P14780).
T4 construct: endogenous in cells; host or cells: HT1080 human fibrosarcoma cells, TPA-stimulated; enzyme purified from conditioned medium
Put plainly: Assay for inhibitory activities on MMPs (fluorogenic peptide substrate), MMP-9. Particulars: MMP-9 from HT1080 cells, activated by TPCK-Trypsin; substrate MOCAc-Pro-Leu-Gly-Leu-A2Pr(DNP)-Ala-Arg-NH2.
Excerpt: MMP-9 was isolated and purified by procedures described in as follows: Yasunori Okada, Yukio Gonoji, Katsumi Naka, Katsuro Tomita, Isao Nakanishi, Kazushi Iwata, Kyoko Yamashita, and Taro Hayakawa: Matrix metalloproteinase 9 (92-kDa gelatinase/type IV collagenase) from HT1080 human fibrosarcoma cells. Purification and activation of the precursor and enzymic properties J. Biol. Chem., 1992, 267 21712-21719, in combination with others: 1)Yasunori Okada, Tatsuhisa Morodomi, Jan J, Enghild, ko Suzuki, Atsushi Yasui, Isao Nakanishi, Guy Salvesen and Hideaki Nagase: Matrix metalloproteinase 2 from human rheumatoid synovial fibroblasts. Purification and activation of the precursor and enzymic properties. Eur. J. Biochem. 1990, 194 721-730; 2)Robin V Ward, Rosalind M Hembry, John J Reynolds and Gillian Murphy: The purification of tissue inhibitor of metalloproteinase-2 from its 72 kDa progelatinase complex. Biochem. J. 1991 278 179-187. In detail, human fibrosarcoma ATCC HT1080 cell line was cultured to confluent in Dulbecco's Modified Medium (DMEM) containing 10% fetal-calf serum at 37° C. for 48 hours. Subsequently, the medium of confluent culture was changed to serum-free DMEM medium. To obtain MMP-9, Phorbol-12-myristate-13-acetate (TPA) must be added to this serum-free DMEM medium at a concentration of 50 ng/ml. The TPA treated medium was centrifuged at 3000 rpm for 15 min and the supernatant was concentrated to 450 ml by a Toyo-Roshi UP-20 apparatus with an ultrafiltration membrane. Then, proMMP-9 in this concentrated solution was purified by using columns of Gelatin-Sepharose and Concanavalin A-Sepharose. The pool containing proMMP-9 was dialyzed, concentrated (Toyo-Roshi UP-20) and applied to columns of Sephacryl S-200 and Green A matrix for the separation from TIMPs. The obtained proMMP-9 fraction was activated by TPCK-Trypsin (Final conc. 3 μg/501 μl React Mix.).
as §1, §2, §3, §4, §5, §6

Another test concerns the target T5, MMP-12 (Homo sapiens, UniProt P39900).
T5 construct: catalytic domain(^100Phe˜^263Gly) was amplified with RT-PCR; His-tag; enterokinase digestion-site; made in house; host or cells: Escherichia coli
Description: Assay for inhibitory activities on MMPs (fluorogenic peptide substrate), MMP-12. Particulars: catalytic domain 100Phe-263Gly; substrate MOCAc-Pro-Leu-Gly-Leu-A2Pr(DNP)-Ala-Arg-NH2. The method, then:
as §7, with “MMP-12,” for “MMP-13, mRNA was prepared from carcinoma cell SW1353 derived from human cartilage stimulate by IL-1, TNF and”, “domain(^100Phe˜^263Gly)” for “domain (^104Tyr˜^267Gly)”, “RT-PCR from Human Placenta Total RNA.” for “RT-PCR.”, “MMP-12” for “MMP-13”, “dialysis” for “dialyze”, “MMP-12.” for “MMP-13.”
as §1, §2, §3, §4, §5, §6

T5 sequence (P39900 100-263): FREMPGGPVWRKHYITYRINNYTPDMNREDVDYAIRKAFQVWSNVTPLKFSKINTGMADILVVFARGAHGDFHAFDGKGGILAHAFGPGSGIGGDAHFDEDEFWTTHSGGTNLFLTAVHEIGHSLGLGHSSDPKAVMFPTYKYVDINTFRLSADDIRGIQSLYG
T4 sequence (P14780 107-707 limits assumed): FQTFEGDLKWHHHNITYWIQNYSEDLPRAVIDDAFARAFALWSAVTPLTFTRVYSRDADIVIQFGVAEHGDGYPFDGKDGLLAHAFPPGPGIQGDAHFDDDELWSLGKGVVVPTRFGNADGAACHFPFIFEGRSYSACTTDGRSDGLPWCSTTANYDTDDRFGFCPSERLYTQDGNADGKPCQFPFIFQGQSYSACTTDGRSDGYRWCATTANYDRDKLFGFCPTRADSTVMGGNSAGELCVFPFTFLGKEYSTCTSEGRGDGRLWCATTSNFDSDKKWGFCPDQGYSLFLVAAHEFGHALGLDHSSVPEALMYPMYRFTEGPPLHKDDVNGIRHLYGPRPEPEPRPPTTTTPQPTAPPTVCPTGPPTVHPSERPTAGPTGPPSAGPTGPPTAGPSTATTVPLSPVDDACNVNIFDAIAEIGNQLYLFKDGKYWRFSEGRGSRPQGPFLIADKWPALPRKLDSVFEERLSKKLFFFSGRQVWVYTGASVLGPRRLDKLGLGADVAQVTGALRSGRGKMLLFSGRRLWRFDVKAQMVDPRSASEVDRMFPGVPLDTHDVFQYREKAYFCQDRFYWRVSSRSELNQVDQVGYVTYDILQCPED

As to `C[C@@H](NS(=O)(=O)c1ccc(-c2ncc(-c3ccc(Cl)cc3)s2)cc1)C(=O)O` [Compound B-25], the IC50 came out at 0.484 nM against MMP-2; 51.7 nM against MMP-8; 4.82 nM against MMP-13; 5.69 nM on MMP-9; 0.949 nM against MMP-12.
On the same counts, the results for `CC(C)C[C@@H](NS(=O)(=O)c1ccc(-c2ncc(-c3ccc(Cl)cc3)o2)cc1)C(=O)O` [Compound A-30] are 44.4 nM, 320 nM, 226 nM, 502 nM and 11.4 nM.
For `CC(C)[C@H](NS(=O)(=O)c1ccc(-c2ncc(-c3ccccc3)o2)cc1)C(=O)O` [Compound A-22] the same measures were 7.84 nM, 53.3 nM, 5.31 nM, 144 nM and 2.69 nM.
As to `CC(C)[C@@H](NS(=O)(=O)c1ccc(-c2ncc(-c3ccc(F)cc3)o2)cc1)C(=O)O` [Compound A-25], the 50% inhibitory concentration (IC50) was found to be 12.2 nM against MMP-2; 75.9 nM on MMP-8; 140 nM on MMP-13; 179 nM on MMP-9; 7.48 nM at MMP-12.
Turning to `COc1ccc(-c2cnc(-c3ccc(S(=O)(=O)N[C@H](CC(C)C)C(=O)O)cc3)o2)cc1` [Compound A-28], the IC50 at MMP-2 turned out to be 10.9 nM; against MMP-8, 26.1 nM; against MMP-13, 44.8 nM; at MMP-9 it was 483 nM; on MMP-12 it was 5.05 nM.
Take `C[C@@H](NS(=O)(=O)c1ccc(-c2ncc(-c3ccc(F)cc3)s2)cc1)C(=O)O` [Compound B-27]: the IC50 against MMP-2 stood at 0.901 nM; against MMP-8, 25.2 nM; against MMP-13 it was 15.3 nM; at MMP-9 it was 13.3 nM; against MMP-12, 3.29 nM.
For the molecule `COc1ccc(-c2cnc(-c3ccc(S(=O)(=O)N[C@H](Cc4ccccc4)C(=O)O)cc3)o2)cc1` [Compound A-14], the IC50 came out at 2.66 nM at MMP-2; 7.07 nM against MMP-8; 5.51 nM against MMP-13; 174 nM at MMP-9; 1.88 nM against MMP-12.
Regarding `O=C(O)[C@H](Cc1ccccc1)NS(=O)(=O)c1ccc(-c2ncc(-c3ccc(Cl)cc3)s2)cc1` [Compound B-14], the IC50 amounted to 2.56 nM against MMP-2; 72.8 nM at MMP-8; 11 nM against MMP-13; 19.5 nM at MMP-9; 2.49 nM on MMP-12.
On the same counts, the results for `O=C(O)C[C@@H](NS(=O)(=O)c1ccc(-c2ncc(-c3ccc(Cl)cc3)s2)cc1)C(=O)O` [Compound B-38] are 2.14 nM, 104 nM, 7.43 nM, 11.6 nM and 2.54 nM.
On the same counts, the results for `COc1ccc(-c2cnc(-c3ccc(S(=O)(=O)N[C@H](CC(C)C)C(=O)O)cc3)s2)cc1` [Compound B-34] are 1.63 nM, 24.9 nM, 6.82 nM, 53.6 nM and 3.35 nM.
Consider `C[C@@H](NS(=O)(=O)c1ccc(-c2ncc(-c3ccccc3)s2)cc1)C(=O)O` [Compound B-21], for which the concentration for half-maximal inhibition (IC50) was determined as 1.47 nM at MMP-2; 58.2 nM on MMP-8; 22 nM against MMP-13; 19.9 nM at MMP-9; 5.86 nM against MMP-12.
Regarding `COc1ccc(-c2cnc(-c3ccc(S(=O)(=O)N[C@H](C)C(=O)O)cc3)s2)cc1` [Compound B-23], the IC50 against MMP-2 was found to be 0.479 nM; against MMP-8, 15.4 nM; at MMP-13, 2.04 nM; on MMP-9, 16.2 nM; against MMP-12, 1.37 nM.
As to `COc1ccc(-c2cnc(-c3ccc(S(=O)(=O)N[C@@H](C)C(=O)O)cc3)o2)cc1` [Compound A-9], the IC50 at MMP-2 came out at 287 nM; against MMP-8 it was 266 nM; against MMP-13, 433 nM; at MMP-9, 9320 nM; against MMP-12, 27.3 nM.
For `COc1ccc(-c2cnc(-c3ccc(S(=O)(=O)N[C@H](C)C(=O)O)cc3)o2)cc1` [Compound A-8] the same measures were 3.37 nM, 25.2 nM, 22.6 nM, 218 nM and 2.78 nM.
For `COc1ccc(-c2cnc(-c3ccc(S(=O)(=O)N[C@@H](C(=O)O)C(C)C)cc3)s2)cc1` [Compound B-6], the 50% inhibitory concentration (IC50) against MMP-2 stood at 0.347 nM; at MMP-8, 6.47 nM; on MMP-13, 1.16 nM; on MMP-9, 10 nM; on MMP-12, 0.37 nM.
